tested on: Mfn2 null MEFs; assay: Mitochondrial elongation (aspect ratio) fusogenicity assay; assay type: cell-based, mouse; set-up: % long compare to B: dose or concentration left out as unconfirmed; settings: mitochondrial elongation relative to Cpd B (B01 = 100); Mfn2 null MEFs, compound overnight as printed (FIG. 48)
Excerpt: A cultured murine embryonic fibroblast assay system was used in which mitochondrial elongation (an increase in aspect ratio) reflects enhanced mitochondrial fusion.
A pharmacophore model was generated based on the interactions of HR1 and HR2 domains in the calculated structural model of Mfn2 in the closed conformation. The key features included hydrophobic interactions involving Mfn2 HR1: Val372 and Met376, and aromatic interactions and hydrogen bonding involving Mfn2 HR1 His380. […] A library comprising ˜14 million commercially available compounds was prepared in silico and evaluated using PHASE to fit these criteria. Top ranked hits were clustered, and filtered based on pharmacological properties using Qikprop. The top 55 (see TABLE 4) commercially available small molecules conforming to the model were selected for functional screening and purchased in 1 mg aliquots. […] Images were acquired by confocal microscopy. Each compound was scored for fusogenicity (see e.g., FIG. 24A) and % cell death (see e.g., FIG. 24B).
Cells were excited with 408 nm (Hoechst), […] (MitoTracker Green and Calcein AM, GFP), or 637 nm (TMRE, MitoTracker Orange, Ethidium homodimer-1, and AF594-Dextran) laser diodes. For mitochondrial elongation studies mitochondrial aspect ratio (long axis/short axis) was calculated using automated edge detection and Image J software. Mitochondrial depolarization was calculated as % of green mitochondria visualized on MitoTracker Green and TMRE merged images, expressed as green/(green+yellow mitochondria)×100.

Row | Compound | % long compare to B [%]
1 | CC(Sc1nnc(-c2ccco2)n1-c1ccccc1)C(=O)Nc1sc2c(c1C(N)=O)CCC2 (stereo not drawn) [1-06, 2-(2-{[5-(furan-2-yl)-4-phenyl-4H-1,2,4-triazol-3-yl]sulfanyl}propana-mido)-4H,5H,6H-cyclopenta[b]thiophene-3-carboxamide] | 10
2 | Cn1c(SCC(=O)Nc2sc3c(c2C(N)=O)CCC3)nnc1-c1ccc(F)cc1 [1-A3, 2-(2-{[5-(4-fluorophenyl)-4-methyl-4H-1,2,4-triazol-3-yl]sulfanyl}acetamido)-4H,5H,6H-cyclopenta[b]-thiophene-3-carboxamide] | −10
3 | CC1CCc2c(sc(NC(=O)CSc3nnc4n3CCCCC4)c2C(N)=O)C1 (stereo not drawn) [1-A4, 6-methyl-2-(2-{5H,6H,7H,8H,9H-[1,2,4]triazolo[4,3-a]azepin-3-ylsulfanyl}acetamido)-4,5,6,7-tetrahydro-1-benzothiophene-3-carboxamide] | 2
4 | NC(=O)c1c(NC(=O)CSc2nc(C3CC3)n(-c3ccccc3)n2)sc2c1CCC2 [1-A5, 2-{2-[(5-cyclopropyl-1-phenyl-1H-1,2,4-triazol-3-yl)sulfanyl]acetamido}-4H,5H,6H-cyclopenta[b]thiophene-3-carboxamide] | −6
5 | COc1ccc(-n2ccnc2SC(C)C(=O)Nc2sc3c(c2C(N)=O)CCC3)cc1 (stereo not drawn) [1-A7, 2-(2-{[1-(4-methoxyphenyl)-1H-imidazol-2-yl]sulfanyl}-propanamido)-4H,5H,6H-cyclopenta[b]thiophene-3-carboxamide] | −24
6 | CCn1c(Cc2ccccc2)nnc1SC(C)C(=O)Nc1sc2c(c1C(N)=O)CCC2 (stereo not drawn) [1-A8, 2-{2-[(5-benzyl-4-ethyl-4H-1,2,4-triazol-3-yl)sulfanyl]-propanamido}-4H,5H,6H-cyclopenta[b]thiophene-3-carboxamide] | 47
7 | NC(=O)c1c(NC(=O)CSc2nnc3n2CCCCC3)sc2c1CCC2 [1-A10, 2-(2-{5H,6H,7H,8H,9H-[1,2,4]triazolo[4,3-a]azepin-3-ylsulfanyl}acetamido)-4H,5H,6H-cyclopenta[b]thio-phene-3-carboxamide] | 45
8 | CC1CCc2c(sc(NC(=O)CSc3nnc(C4CC4)n3C)c2C(N)=O)C1 (stereo not drawn) [1-A11, 2-{2-[(5-cyclopropyl-4-methyl-4H-1,2,4-triazol-3-yl)sulfanyl]acetamido}-6-methyl-4,5,6,7-tetrahydro-1-benzothiophene-3-carboxamide] | 6
9 | CC(Sc1nnc(N2CCCCC2)n1-c1ccccc1)C(=O)Nc1sc2c(c1C(N)=O)CCC2 (stereo not drawn) [1-A12, 2-(2-{[4-phenyl-5-(piperidin-1-yl)-4H-1,2,4-triazol-3-yl]sul-fanyl]propanamido)-4H,5H,6H-cyclopenta[b]thiophene-3-carboxamide] | −8
10 | CC1CCc2c(sc(NC(=O)CSc3nnc(C4CC4)n3-c3ccccc3)c2C#N)C1 (stereo not drawn) [1-B2, N-(3-cyano-6-methyl-4,5,6,7-tetrahydro-1-benzothiophen-2-yl)-2-[(5-cyclopropyl-4-phenyl-4H-1,2,4-triazol-3-yl)sulfanyl]acetamide] | −11
11 | NC(=O)c1c(NC(=O)CSc2nnc(C3CC3)n2-c2ccccc2)sc2c1CCC2 [1-B3, 2-{2-[(5-cyclopropyl-4-phenyl-4H-1,2,4-triazol-3-yl)sulfanyl]acetamido}-4H,5H,6H-cyclopenta[b]thiophene-3-carboxamide] | 90
12 | Cn1c(SCC(=O)Nc2sc3c(c2C(N)=O)CCC3)nnc1C(F)(F)F [1-B4, 2-(2-{[4-methyl-5-(trifluoro-methyl)-4H-1,2,4-triazol-3-yl]sulfanyl}acetamido)-4H,5H,6H-cyclopenta[b]-thiophene-3-carboxamide] | 10
13 | Cn1c(SCC(=O)Nc2sc3c(c2C(=O)NCc2ccccc2)CCCC3)nnc1C1CC1 [1-B5, N-benzyl-2-{2-[(5-cyclopropyl-4-methyl-4H-1,2,4-triazol-3-yl)sulfanyl]acetamido}-4,5,6,7-tetrahydro-1-benzothiophene-3-carboxamide] | −31
14 | COCCNC(=O)c1c(NC(=O)CSc2nnc(C3CC3)n2C)sc2c1CCCC2 [1-B6, 2-{2-[(5-cyclopropyl-4-methyl-4H-1,2,4-triazol-3-yl)sulfanyl]acetamido}-N-(2-methoxyethyl)-4,5,6,7-tetrahydro-1-benzothiophene-3-carboxamide] | 68
15 | CC(Sc1nnc(Cc2cccs2)n1C)C(=O)Nc1sc2c(c1C(N)=O)CCC2 (stereo not drawn) [1-B7, 2-[2-({4-methyl-5-[(thiophen-2-yl)methyl]-4H-1,2,4-triazol-3-yl}sulfanyl)propanamido]-4H,5H,6H-cyclopenta[b]thio-phene-3-carboxamide] | 41
16 | Cc1occc1-c1nnc(SC(C)C(=O)Nc2sc3c(c2C(N)=O)CCC3)n1-c1ccccc1 (stereo not drawn) [1-B8, 2-(2-{[5-(2-methylfuran-3-yl)-4-phenyl-4H-1,2,4-triazol-3-yl]sulfanyl}propanamido)-4H,5H,6H-cyclopenta[b]thio-phene-3-carboxamide] | 20
17 | O=C(NCCSCc1ccccc1F)NC1CCCCC1 [1-B10, 1-cyclohexyl-3-(2-{[(2-fluorophenyl)methyl]sulfanyl}ethyl)urea] | 6
18 | CC1CCc2c(sc(NC(=O)CSc3nc(C4CC4)n(-c4ccccc4)n3)c2C(N)=O)C1 (stereo not drawn) [1-B11, 2-{2-[(5-cyclopropyl-1-phenyl-1H-1,2,4-triazol-3-yl)sulfanyl]acetamido}-6-methyl-4,5,6,7-tetrahydro-1-benzothiophene-3-carboxamide] | −12
19 | N#Cc1c(NC(=O)CSc2nnc(C3CC3)n2-c2ccccc2)sc2c1CCCC2 [1-C1, N-(3-cyano-4,5,6,7-tetrahydro-1-benzothiophen-2-yl)-2-[(5-cyclopropyl-4-phenyl-4H-1,2,4-triazol-3-yl)sulfanyl]acetamide] | 19
20 | Cc1nnc(SCC(=O)Nc2sc3c(c2C(N)=O)CCC3)n1Cc1ccccc1 [1-C2, 2-{2-[(4-benzyl-5-methyl-4H-1,2,4-triazol-3-yl)sulfanyl]acetamido}-4H,5H,6H-cyclopenta[b]thiophene-3-carboxamide] | −18
21 | CC1CCc2c(sc(NC(=O)CSc3nncn3-c3ccccc3)c2C(N)=O)C1 (stereo not drawn) [1-C3, 6-methyl-2-{2-[(4-phenyl-4H-1,2,4-triazol-3-yl)sulfanyl]acetamido}-4,5,6,7-tetrahydro-1-benzothiophene-3-carboxamide] | −9
22 | NC(=O)c1c(NC(=O)CSc2nncn2-c2ccccc2)sc2c1CCC2 [1-C4, 2-{2-[(4-phenyl-4H-1,2,4-triazol-3-yl)sulfanyl]acetamido}-4H,5H,6H-cyclopenta-[b]thiophene-3-carboxamide] | −13
23 | Cc1ccccc1-n1cnnc1SCC(=O)Nc1sc2c(c1C(N)=O)CCC2 [1-C5, 2-(2-{[4-(2-methylphenyl)-4H-1,2,4-triazol-3-yl]sulfanyl}acet-amido)-4H,5H,6H-cyclopenta-[b]thiophene-3-carboxamide] | 12
24 | Cn1c(CC2CCS(=O)(=O)C2)nnc1SCC(=O)Nc1sc2c(c1C(N)=O)CCCC2 (stereo not drawn) [1-C6, 2-[2-({5-[(1,1-dioxo-1λ^6-thiolan-3-yl)methyl]-4-methyl-4H-1,2,4-triazol-3-yl}sulfanyl)-acetamido]-4,5,6,7-tetrahydro-l-benzothiophene-3-carboxamide] | 23
